Ten compounds from US20250346597A1, “CONDENSED HETEROCYCLIC COMPOUNDS AS INHIBITOR OF DIACYLGLYCEROL KINASES” (BEONE MEDICINES I GMBH, priority 2023, published 2025) can be followed below.

The term IC50 denotes the point on the concentration scale where inhibition reaches its midpoint. Higher therefore signals weaker potency.

Experiment [1] addresses DGKζ (Homo sapiens (Human), UniProt Q13574). The experiment is described as follows: Biochemical DGK IC50 assay (ADP-Glo, lipid micelle substrate), DGKζ. As to conditions: full length DGKζ 0.5 nM, ATP 140 μM, DAG 80 μM. The essentials: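 Full-length human His-TEV-tagged DGKζ, expressed in Sf9 cells and purified, was run at room temperature on DAG/PS lipid micelles in 50 mM HEPES, 10 mM MgCl2, 0.01 mM CaCl2 buffer. After 1 h reaction, ADP formed was detected by ADP-Glo luminescence. IC50s came from inhibition across increasing compound concentrations.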

Experiment [2] concerns the target DGKα (Homo sapiens (Human), UniProt P23743). The experiment is described as follows: Biochemical DGK IC50 assay (ADP-Glo, lipid micelle substrate), DGKα. Also: full length DGKα 7.5 nM. As to conditions: full length DGKα […], ATP 140 μM, DAG 80 μM. The essentials:
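Full-length human DGKα assayed by ADP-Glo with DAG/PS lipid micelle substrate at room temperature in 50 mM HEPES, 10 mM MgCl2, 0.01% BSA, 0.1 mM Na3VO4, 0.005% Tween-20, 0.01 mM CaCl2.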
On the technique in general: In ADP-Glo the light output rises with the ADP produced.

DGKζ, sequence (Q13574 other isoform, or with tags, fused parts or gaps): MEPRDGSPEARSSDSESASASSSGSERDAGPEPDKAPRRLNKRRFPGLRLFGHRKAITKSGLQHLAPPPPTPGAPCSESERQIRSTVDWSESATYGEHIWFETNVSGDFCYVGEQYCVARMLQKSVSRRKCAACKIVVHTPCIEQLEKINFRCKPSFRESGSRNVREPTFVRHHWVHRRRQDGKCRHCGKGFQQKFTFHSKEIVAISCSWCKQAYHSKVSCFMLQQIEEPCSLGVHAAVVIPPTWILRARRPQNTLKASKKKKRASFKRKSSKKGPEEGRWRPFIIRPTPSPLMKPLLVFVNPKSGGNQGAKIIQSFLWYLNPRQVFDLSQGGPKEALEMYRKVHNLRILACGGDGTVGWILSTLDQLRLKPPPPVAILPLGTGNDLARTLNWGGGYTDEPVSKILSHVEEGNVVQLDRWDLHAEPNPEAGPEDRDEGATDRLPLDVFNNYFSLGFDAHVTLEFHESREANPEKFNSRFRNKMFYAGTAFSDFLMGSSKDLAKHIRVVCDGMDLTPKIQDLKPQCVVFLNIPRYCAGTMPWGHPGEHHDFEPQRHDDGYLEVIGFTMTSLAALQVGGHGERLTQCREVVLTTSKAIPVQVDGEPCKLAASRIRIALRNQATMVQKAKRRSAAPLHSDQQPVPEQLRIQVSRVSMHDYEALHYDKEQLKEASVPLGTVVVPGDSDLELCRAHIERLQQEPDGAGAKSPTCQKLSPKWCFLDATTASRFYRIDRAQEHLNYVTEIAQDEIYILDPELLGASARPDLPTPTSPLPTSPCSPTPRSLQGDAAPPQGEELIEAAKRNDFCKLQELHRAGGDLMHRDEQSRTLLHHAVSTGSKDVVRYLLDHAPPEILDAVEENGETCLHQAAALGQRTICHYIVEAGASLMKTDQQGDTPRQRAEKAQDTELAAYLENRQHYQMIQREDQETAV
DGKα, sequence (P23743 whole entry): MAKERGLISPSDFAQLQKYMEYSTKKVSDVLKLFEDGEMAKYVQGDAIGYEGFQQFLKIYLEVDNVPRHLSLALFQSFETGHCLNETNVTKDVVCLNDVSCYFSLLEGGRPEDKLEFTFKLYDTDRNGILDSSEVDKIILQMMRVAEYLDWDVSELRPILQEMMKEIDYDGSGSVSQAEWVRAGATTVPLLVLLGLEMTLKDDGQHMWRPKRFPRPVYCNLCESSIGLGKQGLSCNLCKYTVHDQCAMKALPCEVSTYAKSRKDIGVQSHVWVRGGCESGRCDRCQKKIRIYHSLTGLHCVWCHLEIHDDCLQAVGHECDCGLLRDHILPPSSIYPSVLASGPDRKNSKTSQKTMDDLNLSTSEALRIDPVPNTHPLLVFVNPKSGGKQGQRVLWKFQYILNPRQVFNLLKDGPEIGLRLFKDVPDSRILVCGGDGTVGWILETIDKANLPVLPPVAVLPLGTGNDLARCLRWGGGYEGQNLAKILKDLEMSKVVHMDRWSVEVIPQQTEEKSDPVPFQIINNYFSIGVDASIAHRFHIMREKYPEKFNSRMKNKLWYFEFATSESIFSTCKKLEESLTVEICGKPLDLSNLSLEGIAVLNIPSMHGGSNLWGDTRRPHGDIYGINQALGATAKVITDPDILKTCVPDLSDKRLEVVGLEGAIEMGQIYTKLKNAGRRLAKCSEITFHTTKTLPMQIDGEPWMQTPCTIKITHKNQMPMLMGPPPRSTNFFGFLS

Consider `CC[C@H]1CN(C(C)c2ccc3ncsc3c2)[C@H](CC)CN1c1nc(=O)n(C)c2cn(CC#N)nc12` (stereo partly drawn) [Compound A123, 2-(7-((2S,5R)-4-(1-(benzo[d]thiazol-6-yl)ethyl)-2,5-diethylpiperazin-1-yl)-4-methyl-5-oxo-4,5-dihydro-2H-pyrazolo[4,3-d]pyrimidin-2-yl)acetonitrile], for which the IC50 in experiment [1] turned out to be 11 nM; in experiment [2], 111 nM.

In the case of `CC[C@H]1CN(C(C)c2ccc3nc(C)sc3c2)[C@H](CC)CN1c1nc(=O)n(C)c2cn(CC#N)nc12` (some centres unmarked) [Compound A124], the IC50 in experiment [1] amounted to 39 nM; in experiment [2], 433 nM.

In the case of `CC[C@@H]1CN(c2cc(=O)n(C)c3cn(CC#N)nc23)[C@@H](C)CN1C(C)c1ccc2ccsc2n1` (some centres unmarked) [Compound A130], the IC50 in experiment [1] was 46 nM; in experiment [2], 215 nM.

On to `CC[C@@H]1CN(c2cc(=O)n(C)c3cn(CC#N)nc23)[C@@H](C)CN1C(C)c1ccc2cc(C)sc2n1` (stereo partly drawn) [Compound A131, 2-(7-((2S,5R)-5-ethyl-2-methyl-4-(1-(2-methylthieno[2,3-b]pyridin-6-yl)ethyl)piperazin-1-yl)-4-methyl-5-oxo-4,5-dihydro-2H-pyrazolo[4,3-b]pyridin-2-yl)acetonitrile], for which the IC50 in experiment [1] was 26 nM; in experiment [2], 246 nM.

On to `CC[C@@H]1CN(c2cc(=O)n(C)c3cn(CC#N)nc23)[C@@H](C)CN1C(C)c1ccc2cc(F)sc2n1` (stereo partly drawn) [Compound A132, 2-(7-((2S,5R)-5-ethyl-4-(1-(2-fluorothieno[2,3-b]pyridin-6-yl)ethyl)-2-methylpiperazin-1-yl)-4-methyl-5-oxo-4,5-dihydro-2H-pyrazolo[4,3-b]pyridin-2-yl)acetonitrile], for which the IC50 came out at 139 nM in experiment [1] and 63 nM in experiment [2].

For `CC#CCn1cc2c(n1)c(N1C[C@@H](CC)N(C(C)c3ccc4nc(C)sc4n3)C[C@@H]1CC)cc(=O)n2C` (some centres unmarked) [Compound A137], the figures for the IC50 in experiment [1] and in experiment [2] were 118 nM and 13 nM, respectively.

Regarding `Cc1cc2nc(C(C)N3C[C@H](C)N(c4cc(=O)n(C)c5cn(CC#N)nc45)C[C@H]3C)ccc2s1` (stereo partly drawn) [Compound A155, 2-(7-((2S,5R)-2,5-dimethyl-4-(1-(2-methylthieno[3,2-b]pyridin-5-yl)ethyl)piperazin-1-yl)-4-methyl-5-oxo-4,5-dihydro-2H-pyrazolo[4,3-b]pyridin-2-yl)acetonitrile], the results for the IC50 in experiment [1] and in experiment [2] were 74 nM and 378 nM, respectively.

`CC[C@H]1CN(C(C)c2ccn3nc(Cl)cc3n2)[C@H](CC)CN1c1cc(=O)n(C)c2cn(CC#N)nc12` (stereo partly drawn) [Compound A175, 2-(7-((2S,5R)-4-(1-(2-chloropyrazolo[1,5-a]pyrimidin-5-yl)ethyl)-2,5-diethylpiperazin-1-yl)-4-methyl-5-oxo-4,5-dihydro-2H-pyrazolo[4,3-b]pyridin-2-yl)acetonitrile]: the IC50 is 79 nM in experiment [1] and 32 nM in experiment [2].

Consider `CC[C@H]1CN(C(C)c2cn3ncccc3n2)[C@H](CC)CN1c1cc(=O)n(C)c2cn(CC#N)nc12` (stereo partly drawn) [Compound A180, 2-(7-((2S,5R)-2,5-diethyl-4-(1-(imidazo[1,2-b]pyridazin-2-yl)ethyl)piperazin-1-yl)-4-methyl-5-oxo-4,5-dihydro-2H-pyrazolo[4,3-b]pyridin-2-yl)acetonitrile], for which the IC50 was found to be 1180 nM in experiment [1] and 2450 nM in experiment [2].

In the case of `CC[C@H]1CN(C(C)c2nc3cccnc3s2)[C@H](CC)CN1c1cc(=O)n(C)c2cn(CC#N)nc12` (stereo partly drawn) [Compound A181, 2-(7-((2S,5R)-2,5-diethyl-4-(1-(thiazolo[5,4-b]pyridin-2-yl)ethyl)piperazin-1-yl)-4-methyl-5-oxo-4,5-dihydro-2H-pyrazolo[4,3-b]pyridin-2-yl)acetonitrile], the IC50 in experiment [1] was found to be 178 nM; in experiment [2] it was 470 nM.
